Our source for the PGE2 EC50 with compound and outcome values is PubChem BioAssay AID1421 (Emory University Molecular Libraries Screening Center, 2008).

Calls of active or inactive are those of the source. How the calls were made is not given here.

For the assay, the target named is Prostaglandin E2 receptor EP2 subtype (Homo sapiens) (UniProt P43116). The assay can be described thus: EP2 receptor modulators, dose response, cell-based, human EP2, PGE2 EC50 shift (AID 1421). Particulars: EP2-expressing cells, PGE2 EC50 shift by compound; for PGE2 EC50 with compound: measured here: PGE2 EC50 at 6.7 uM compound.
Sequence of Prostaglandin E2 receptor EP2 subtype (Homo sapiens) (P43116 whole entry, looked up): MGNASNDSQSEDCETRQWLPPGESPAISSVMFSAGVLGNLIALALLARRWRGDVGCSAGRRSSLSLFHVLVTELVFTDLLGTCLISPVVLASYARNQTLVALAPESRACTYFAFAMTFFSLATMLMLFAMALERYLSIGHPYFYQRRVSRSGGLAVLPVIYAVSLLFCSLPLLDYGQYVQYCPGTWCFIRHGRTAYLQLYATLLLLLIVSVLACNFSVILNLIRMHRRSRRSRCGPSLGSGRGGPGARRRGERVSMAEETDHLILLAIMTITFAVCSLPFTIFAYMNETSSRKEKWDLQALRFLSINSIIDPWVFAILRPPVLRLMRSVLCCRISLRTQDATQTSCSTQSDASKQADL

Take `Nc1cccc(OCc2nc(N)nc(N)c2-c2ccc(Cl)cc2)c1`: the PGE2 EC50 with compound stood at 1.24 nM.
Same read-out and setting: to `CC1(C)OC(c2ccccc2)=C/C(=C/C=Nc2ccccc2)O1` belongs 0.99 nM.
The same measure, in the same setting: the same measure for `COc1ccc(Oc2cc(C(F)(F)F)nc(N(C)C)n2)cc1`: 0.63 nM; for `CCCCOC(=O)Sc1nc2ccccc2o1`: 2.48 nM; for `CN(Cc1c(C(=O)N2CCc3ccccc3C2)nc2ccc(Cl)cn12)C(C1CC1)C1CC1`: 0.9 nM.
For the compound `CCCCn1c(=O)c2ccccc2c2ccccc2c1=O`, the outcome was active and the PGE2 EC50 with compound was 0.96 nM.
As to `O=C(CSc1nc2ccccc2o1)Nc1cc(C(F)(F)F)ccc1N1CCOCC1`, the PGE2 EC50 with compound was 0.77 nM.
Regarding `Cc1c(OCc2ccccc2)c(=O)ccn1Cc1ccc(Cl)cc1`, the PGE2 EC50 with compound was 1.02 nM.
On the same count and under the same terms, to `O=C1/C(=C/c2cccnc2)SC(=NCc2ccccc2)N1Cc1ccccc1` belongs 1.29 nM.
On the same count and under the same terms, the same measure for `Cc1ccc(C)c(N=C2CCCN2Cc2ccccc2)c1C#N`: 0.61 nM.
Still for that read-out and setting: to `CCCCc1nc2sc3c(SCC(=O)NCc4ccco4)ncnc3c2c2c1CCC2` belongs 2.5 nM.
Take `CC(C)(Oc1ccc(Cl)cc1)C(=O)N(Cc1ccccc1)c1ccccn1`: the PGE2 EC50 with compound was found to be 1.07 nM.
As for `Cc1cc(SCCC(=O)O)nc2c(C)cccc12`, the PGE2 EC50 with compound was found to be 1.01 nM.
The same measure, in the same setting: the same measure for `COc1ccc(S(=O)(=O)N(Cc2ccccc2)Cc2nc(-c3ccccc3)no2)cc1`: 1.16 nM.
Same read-out and setting: the same measure for `CCCCOc1ccccc1Cn1c(=O)oc2ccccc21`: 0.81 nM.
`CC(=O)N(Cc1cccs1)Cc1cc2ccc(C)c(C)c2nc1Cl`: the outcome was active and the PGE2 EC50 with compound came to 1.01 nM.
In the case of `CC(C)c1cc(=O)oc2c3c4c(cc12)CCCN4CCC3`, the PGE2 EC50 with compound was found to be 1.15 nM.
Same read-out and setting: the same measure for `O=S(=O)(Nc1ccccc1N1CCCCC1)c1ccc(Cl)s1`: 1.49 nM.
The same measure, in the same setting: the same measure for `O=C(CSCc1c(Cl)cccc1Cl)Nc1ccccc1-c1ccccc1`: 1.36 nM; for `Cc1ccnc(NS(=O)(=O)c2cccs2)c1`: 1.8 nM.
Turning to `COc1cccc2cc(/C(=N/O)c3ccccc3)oc12`, the result was active and the PGE2 EC50 with compound turned out to be 1.51 nM.
In the case of `CCOP(=O)(OCC)c1nc(-c2ccc(F)cc2)oc1NCc1ccccc1`, the PGE2 EC50 with compound was 1.09 nM.
Still for that read-out and setting: to `Cc1ccc(-n2cc(-c3ccccc3)c3c(N4CCOCC4)ncnc32)cc1` belongs 1.99 nM; to `COc1c(Cl)cc(Cl)cc1C(=O)n1nc(C)cc1C`, 1.14 nM.
Still for that read-out and setting: the same measure for `O=c1c2ccccc2n(Cc2ccc(Cl)cc2)c(=O)n1Cc1ccco1`: 0.82 nM; for `O=c1cc(N2CCCCC2)c(-c2ccccc2)nn1Cc1ccccc1`: 1.25 nM.
The same measure, in the same setting: to `CCOC(=O)CSc1nnc2n(C3CCCCC3)c(=O)c3c4c(sc3n12)CCCC4` belongs 1.13 nM.
On to `Cc1cc(C)c(C#N)c(Oc2ccccc2Br)n1`, for which the PGE2 EC50 with compound came to 1.01 nM.
Still for that read-out and setting: to `Cc1ccc2c3c(cccc13)-c1ccccc1C2=O` belongs 0.86 nM; to `CCOC(=O)c1c(C=O)c(C)n(Cc2ccc(C)cc2)c1C`, 1.31 nM.
The same measure, in the same setting: to `COC(=O)c1c(NC(=O)CSc2nnc(-c3cccnc3)n2Cc2ccco2)sc(C)c1C` belongs 0.79 nM; to `COC(=O)CC1C(C)(C)C(OC(C)=O)[C@@H]2[C@@H](OC(C)=O)[C@]34O[C@@]2(O)[C@]1(C)C3CC[C@]1(C)C4=CC(=O)O[C@H]1c1ccoc1` (stereo not given in full), 0.74 nM; to `CCOC(=O)c1ccc(CN(Cc2ccc(C)cc2)S(=O)(=O)c2cccc([N+](=O)[O-])c2)cc1`, 1.62 nM.
On the same count and under the same terms, to `Cc1ccc(S(=O)(=O)c2ccc(Oc3cccc(C)c3)cc2)cc1` belongs 1.41 nM.
With `CCn1c(=S)[nH]c2c(c1=O)C(C)(C)Cc1ccccc1-2`, the PGE2 EC50 with compound is 0.76 nM.
Still for that read-out and setting: the same measure for `Cc1ccc(C2CC2c2n[nH]c(=S)n2-c2ccc(Cl)cc2)cc1` (stereo not given): 1.23 nM.
Consider `CC1CCN(c2ccccc2NC(=O)c2ccc(C#N)cc2F)CC1`, for which the result was active and the PGE2 EC50 with compound was 0.93 nM.
Consider `Cc1nnc(SCC(=O)NC2CCCCC2)n1C1CCCCC1`, for which the PGE2 EC50 with compound worked out at 2.7 nM.
Same read-out and setting: the same measure for `COc1ccc(-c2nnc3ccc(SCC(=O)Nc4nc5ccccc5s4)nn23)cc1OC`: 0.67 nM.
For the compound `COC(=O)c1c(NC(=O)Cc2cccs2)sc(C)c1C`, the PGE2 EC50 with compound was determined as 0.88 nM.
Same read-out and setting: the same measure for `c1ccc(-c2csc3ncnc(N4CCc5ccccc5C4)c23)cc1`: 1.1 nM.
`CN(CC(=O)Nc1ccccc1-c1ccccc1)Cc1ccccc1Cl`: the PGE2 EC50 with compound worked out at 0.95 nM.
The same measure, in the same setting: to `CCCSc1nc(N2CCOCC2)c2c(c1C#N)CCCC2` belongs 1.06 nM; to `CC1CCN(c2nc(-c3ccncc3)nc3ccccc23)CC1`, 1 nM; to `COc1ccc(-c2noc(-c3ccccc3-c3ccccc3)n2)cc1OC`, 0.31 nM.
For the compound `Cc1cc(C)c2nc(N3CCCN(C(=O)c4ccco4)CC3)c(C#N)cc2c1`, the PGE2 EC50 with compound turned out to be 0.64 nM.
The same measure, in the same setting: the same measure for `COc1ccc(CCN(Cc2nc(-c3ccccc3)no2)Cc2nc(-c3ccccc3)no2)cc1OC`: 1.2 nM.
On the same count and under the same terms, the same measure for `CCCCn1c(C)cc(C)c(S(=O)(=O)c2ccccc2C)c1=O`: 1.08 nM.
Same read-out and setting: the same measure for `CCOC(=O)c1cc2sc(C)cc2n1C(C)C(=O)OCC` (stereo not given): 0.84 nM; for `c1ccc(Cc2nnc(Sc3ccccc3)c3ccccc23)cc1`: 2.76 nM; for `CCC1Oc2ccccc2N(Cc2ccccc2C)C1=O` (stereo not given): 2.7 nM.
With `Cc1cc(C)n(-c2cc(-c3ccccc3)nc(C)n2)n1`, the PGE2 EC50 with compound amounted to 2.6 nM.
On the same count and under the same terms, the same measure for `Cc1ccc(C(=O)N2N=C(c3ccccc3)CC2(O)C(F)(F)F)o1` (stereo not given): 1.62 nM.
On the same count and under the same terms, to `CCOC(=O)c1cnn(-c2nc(-c3ccc(F)cc3)cs2)c1C(F)(F)F` belongs 1.04 nM.
Same read-out and setting: the same measure for `FC(F)(F)c1cc(CO[C@H]2CCCN[C@H]2c2ccccc2)cc(C(F)(F)F)c1`: 1.59 nM; for `Cc1cccnc1N(C(=O)Nc1cccc(Cl)c1)C1=NCC(C)(C)S1`: 1.22 nM; for `CC1(C)Oc2ccc(C(=O)N3CCOCC3)cc2N(CC(=O)N2CCOCC2)C1=O`: 1.69 nM.
Take `CNC(=O)c1cc2c(=O)n3cc(C)ccc3nc2n(C(C)C)c1=N`: the PGE2 EC50 with compound came to 1.13 nM.
The same measure, in the same setting: the same measure for `CCn1c2ccccc2c2cc([N+](=O)[O-])ccc21`: 0.83 nM; for `CSc1nc(Sc2ccccc2)c2ccccc2n1`: 1.6 nM.
As for `CCOC(=O)C1=C(C)OC(N)=C(C#N)C1c1cc(C)sc1C` (stereo not given), the PGE2 EC50 with compound was determined as 1.3 nM.
The same measure, in the same setting: to `CCn1c2ccccc2c2cc(Nc3cc(C)nc4ncnn34)ccc21` belongs 2.83 nM; to `O=C(O)/C=C/c1ccccc1Oc1ccc(Cl)cc1Cl`, 1.21 nM.
Same read-out and setting: the same measure for `O=C(c1ccco1)N(CCC(c1ccccc1)c1ccco1)Cc1ccc(F)cc1` (stereo not given): 1.11 nM; for `COc1ccc(Cn2c(-c3ccc(OC)cc3)nc3ccccc32)cc1`: 1 nM; for `CCCCN1C(=O)/C(=C2\SC(N3CCCCC3)=NC2=O)c2ccccc21`: 1.26 nM.
